Source: paper PMC9230533, “Discovery of Triple Inhibitors of Both SARS-CoV-2 Proteases and Human Cathepsin L” (Pharmaceuticals, 2022)
Like-named read-outs stand apart in the source and are kept apart here.

Legend:
[1] = molecular target: SARS-CoV-2 Mpro (Severe acute respiratory syndrome coronavirus 2, UniProt P0DTD1); assay: SARS-CoV-2 Mpro fluorometric (FRET peptide) enzymatic inhibition assay; format: biochemical; conditions: for fold more potent than disulfiram against Mpro: ratio of IC50 values vs disulfiram
[2] = molecular target: SARS-CoV-2 PLpro (Severe acute respiratory syndrome coronavirus 2, UniProt P0DTD1); assay: SARS-CoV-2 PLpro fluorogenic enzymatic inhibition assay; format: biochemical
[3] = molecular target: T1, human cathepsin L (Homo sapiens, UniProt P07711); assay: Human cathepsin L fluorogenic enzymatic inhibition assay; format: biochemical; conditions: for inhibitory effect on cathepsin L (in words): dose-response, Figure 4
T1 construct: purchased R & D Systems

[4] = tested on: SARS-CoV-2; assay: SARS-CoV-2 infectivity cells-based assay (Huh7.5.1, immunofluorescence), antiviral efficacy; format: cell-based; conditions: for CC50/EC50 Ratio (therapeutic ratio): CC50 over EC50; for EC50: Severe acute respiratory syndrome coronavirus 2, Huh-7.5.1, 48 h, read-out: SARS-CoV-2 Infectivity Cells-Based Assay EC50
[5] = Cell viability / cytotoxicity in the SARS-CoV-2 Huh7.5.1 infectivity assay; conditions: human, Huh7.5.1 cells infected with SARS-CoV-2 (MOI 1.0), tested 60 to 0.08 µM, read-out: SARS-CoV-2 Infectivity Cells-Based Assay CC50 (converted)
[6] = Oral median lethal dose in mice (literature); format: in vivo; conditions: mouse, ratio of cited LD50 values
[7] = cited from earlier work
[8] = tested on: SARS-CoV PLpro; conditions: cited from earlier work
[9] = 50 nM Mpro, 10 µM MCA-[…]-K(DNP)-K-NH2, no DTT, 37 °C, read-out: Mpro IC50
[10] = 24.46 nM PLpro, 50 µM Z-RLRGG-AMC, no DTT, 37 °C, read-out: PLpro IC50
[11] = 1 nM cathepsin L, Z-Phe-Arg-AMC substrate, read-out: Cathepsin L IC50

T1 sequence (P07711 114-333): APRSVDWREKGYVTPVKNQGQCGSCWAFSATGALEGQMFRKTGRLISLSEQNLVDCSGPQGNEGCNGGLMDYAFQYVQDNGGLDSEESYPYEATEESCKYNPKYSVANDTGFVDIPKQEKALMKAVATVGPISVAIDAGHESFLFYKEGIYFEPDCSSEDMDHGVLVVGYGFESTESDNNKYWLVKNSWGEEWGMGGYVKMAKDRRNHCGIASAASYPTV

SMILES	IC50 [1, 9] [nM]	fold more potent than disulfiram against Mpro [1]	IC50 [2, 10] [nM]	fold more potent than disulfiram against PLpro ([2]; ratio of IC50 values vs disulfiram) [fold]	IC50 [3, 11] [nM]	concentration range of antiviral activity ([4]; Huh7.5.1 cells, MOI 1.0, 48 h) [nM]	CC50/EC50 Ratio (therapeutic ratio) ([4]; Huh7.5.1 cells)	EC50 [4] [nM]	CC50 at 48 h [5] [nM]	LD50 relative to LD50 of disulfiram [6]	LD50 Mouse oral [7]	IC50 [1] [nM]	IC50 [2] [nM]	inhibitory effect on cathepsin L (in words) [3]	IC50 [3] [nM]	IC50 [8] [nM]
S=C(SSC(=S)N1CCOCC1)N1CCOCC1 [RI173, di-Morpholine-thiuram disulfide]	600 ± 100	2.5 fold	200 ± 100	19	1700 ± 600	100 to 200	3	100	300	approximately 1.6 times	3250 [31] mg/kg					
CN(C(=S)SSC(=S)N(C)c1ccccc1)c1ccccc1 [RI176, di-Methyl-di-Phenyl-thiuram disulfide]					> 50000							> 50000	> 50000	did not seem to have any inhibitory effect		
CN1CCN(C(=S)SSC(=S)N2CCN(C)CC2)CC1 [RI171, di-4-Methylpiperazine-thiuram disulfide]	3200 ± 100		1900 ± 100		4500 ± 700		0.9	1900 ± 200	1700		100 [26] mg/kg					
CC(C)N(C(=S)SSC(=S)N(C(C)C)C(C)C)C(C)C [RI177, tetra-IsoPropyl-thiuram disulfide]					> 50000			> 60000	> 60000			3800 ± 600	> 50000	did not seem to have any inhibitory effect		
CN(C)C(=S)SSC(=S)N(C)C [RI174, tetra-Methyl-thiuram disulfide]								< 80	< 80		1350 [33] mg/kg	2000 ± 300	600		16900 ± 6900	
S=C(SSC(=S)N1CCCC1)N1CCCC1 [RI172, di-Pyrrolidine-thiuram disulfide]		2.5 fold						< 80	< 80			600 ± 100	700		200	
CCN(CC)C(=S)SSC(=S)N(CC)CC [Disulfiram, reference compound]								500 ± 200	900		1980 [29] mg/kg				2200 ± 1400	24100
CCOC(=S)SSC(=S)OCC [RI175, O,O-di-Ethyl dithiobis-thioformate]		about 5 fold						> 60000	> 60000		1200 [32] mg/kg	300 ± 100	600 ± 100		1900 ± 600	
